In patent publication US20240043903A1, “BIOSENSOR USING PET SUBSTRATE, FABRICATION METHOD THEREFOR, AND METHOD FOR INSPECTING SENSITIVITY OF MICROORGANISM TO ANTIBIOTIC BY USING SAME” (priority 2020, published 2024):

Tested on: E. coli (ATCC25922)
Assay: Susceptibility test of microorganism to antibiotic by real-time capacitance change on interdigitated-electrode PET biosensor
Type: cell-based, Escherichia coli
Conditions: antibiotic 0.5 to 8 μg/mL; for susceptibility of E. coli (ATCC25922) to antibiotic: 10^5 cells/mL; for capacitance change after treatment with antibiotic: E. coli (ATCC25922) 10^5 cells/mL
Description: The strain used in the experiment was Escherichia coli (ATCC25922), and a standard strain was purchased from ATCC of the United States and used. For the culture of the strain, the Mueller-Hinton media (MH media), which is a culture medium recommended by the US standard CLSI and European standard EUCAST, was purchased from DIFCO and used according to the recommended preparation method in the product manual. After culturing the strain in the MH media for 24 hours, the strain culture medium was adjusted to McFarland OD 0.5, and then diluted 1/100 with the culture medium (strain concentration: 5×10^5 to 10^6 cfu/mL) and treated on the sensor.
The susceptibility of microorganisms to antibiotics was measured by using the sensors fabricated in Examples 1 and 2.

[1] = sensor of Example 1 (PET substrate-Ag electrode), FIG. 4b
[2] = sensor of Example 2 (PET substrate-Au electrode), FIG. 5c

CC1(C)S[C@@H]2[C@H](NC(=O)[C@H](N)c3ccccc3)C(=O)N2[C@H]1C(=O)O [ampicillin]
susceptibility of E. coli (ATCC25922) to antibiotic [1]: tolerance (resistance) | capacitance change after treatment with antibiotic [1]: significantly increased capacitance change | susceptibility of E. coli (ATCC25922) to antibiotic [2]: resistance | capacitance change after treatment with antibiotic [2]: capacitance change significantly increased
